# From patent US20040259866A1, “Calcium channel blockers comprising two benzhydril moieties” (priority 1998, published 2004)
# Target: T1, rat α1B+α2b+β1b channels (N-type channels) (Rattus norvegicus, UniProt Q02294)
# T1 construct: expressed in transfected cells
# Test: Block of α1B N-type channels, whole cell patch recordings (Example 6)
# Format: cell-based
# Details: 0.067 Hz; HEK 293, 5 mM barium as charge carrier; read-out: Block of α1B N-type Channels IC50, 0.067 Hz
# Protocol: Antagonist activity was measured using whole cell patch recordings on human embryonic kidney cells either stably or transiently expressing rat α1B+α2b+β1b channels (N-type channels) with 5 mM barium as a charge carrier.
# For transient expression, host cells, such as human embryonic kidney cells, HEK 293 (ATCC# CRL 1573) were grown in standard DMEM medium supplemented with 2 mM glutamine and 10% fetal bovine serum. HEK 293 cells were transfected by a standard calcium-phosphate-DNA coprecipitation method using the rat α1B+β1b+α2δ N-type calcium channel subunits in a vertebrate expression vector (for example, see Current Protocols in Molecular Biology).
# After an incubation period of from 24 to 72 hrs the culture medium was removed and replaced with external recording solution (see below). Whole cell patch clamp experiments were performed using an Axopatch 200B amplifier (Axon Instruments, Burlingame, Calif.) linked to an IBM compatible personal computer equipped with pCLAMP software. Borosilicate glass patch pipettes (Sutter Instrument Co., Novato, Calif.) were polished (Microforge, Narishige, Japan) to a resistance of about 4 MΩ when filled with cesium methanesulfonate internal solution (composition in MM: 109 CsCH3SO4, 4 MgCl2, 9 EGTA, 9 HEPES, pH 7.2). Cells were bathed in 5 mM Ba^++ (in mM: 5 BaCl2, 1 MgCl2, 10 HEPES, 40 tetraethylammonium chloride, 10 glucose, 87.5 CsCl pH 7.2). […] Drugs were perfused directly into the vicinity of the cells using a microperfusion system.
# Normalized dose-response curves were fit (Sigmaplot 4.0, SPSS Inc., Chicago, Ill.) by the Hill equation to determine IC50 values. Steady-state inactivation curves were plotted as the normalized test pulse amplitude following 5 s inactivating prepulses at +10 mV increments. Inactivation curves were fit (Sigmaplot 4.0) with the Boltzman equation, Ipeak (normalized)=1/(1+exp((V-Vh)z/25.6)), where V and Vh are the conditioning and half inactivation potentials, respectively, and z is the slope factor.
# Using the procedure set forth above, various compounds of the invention were tested for their ability to block N-type calcium channels.
# T1 sequence (Q02294 whole entry): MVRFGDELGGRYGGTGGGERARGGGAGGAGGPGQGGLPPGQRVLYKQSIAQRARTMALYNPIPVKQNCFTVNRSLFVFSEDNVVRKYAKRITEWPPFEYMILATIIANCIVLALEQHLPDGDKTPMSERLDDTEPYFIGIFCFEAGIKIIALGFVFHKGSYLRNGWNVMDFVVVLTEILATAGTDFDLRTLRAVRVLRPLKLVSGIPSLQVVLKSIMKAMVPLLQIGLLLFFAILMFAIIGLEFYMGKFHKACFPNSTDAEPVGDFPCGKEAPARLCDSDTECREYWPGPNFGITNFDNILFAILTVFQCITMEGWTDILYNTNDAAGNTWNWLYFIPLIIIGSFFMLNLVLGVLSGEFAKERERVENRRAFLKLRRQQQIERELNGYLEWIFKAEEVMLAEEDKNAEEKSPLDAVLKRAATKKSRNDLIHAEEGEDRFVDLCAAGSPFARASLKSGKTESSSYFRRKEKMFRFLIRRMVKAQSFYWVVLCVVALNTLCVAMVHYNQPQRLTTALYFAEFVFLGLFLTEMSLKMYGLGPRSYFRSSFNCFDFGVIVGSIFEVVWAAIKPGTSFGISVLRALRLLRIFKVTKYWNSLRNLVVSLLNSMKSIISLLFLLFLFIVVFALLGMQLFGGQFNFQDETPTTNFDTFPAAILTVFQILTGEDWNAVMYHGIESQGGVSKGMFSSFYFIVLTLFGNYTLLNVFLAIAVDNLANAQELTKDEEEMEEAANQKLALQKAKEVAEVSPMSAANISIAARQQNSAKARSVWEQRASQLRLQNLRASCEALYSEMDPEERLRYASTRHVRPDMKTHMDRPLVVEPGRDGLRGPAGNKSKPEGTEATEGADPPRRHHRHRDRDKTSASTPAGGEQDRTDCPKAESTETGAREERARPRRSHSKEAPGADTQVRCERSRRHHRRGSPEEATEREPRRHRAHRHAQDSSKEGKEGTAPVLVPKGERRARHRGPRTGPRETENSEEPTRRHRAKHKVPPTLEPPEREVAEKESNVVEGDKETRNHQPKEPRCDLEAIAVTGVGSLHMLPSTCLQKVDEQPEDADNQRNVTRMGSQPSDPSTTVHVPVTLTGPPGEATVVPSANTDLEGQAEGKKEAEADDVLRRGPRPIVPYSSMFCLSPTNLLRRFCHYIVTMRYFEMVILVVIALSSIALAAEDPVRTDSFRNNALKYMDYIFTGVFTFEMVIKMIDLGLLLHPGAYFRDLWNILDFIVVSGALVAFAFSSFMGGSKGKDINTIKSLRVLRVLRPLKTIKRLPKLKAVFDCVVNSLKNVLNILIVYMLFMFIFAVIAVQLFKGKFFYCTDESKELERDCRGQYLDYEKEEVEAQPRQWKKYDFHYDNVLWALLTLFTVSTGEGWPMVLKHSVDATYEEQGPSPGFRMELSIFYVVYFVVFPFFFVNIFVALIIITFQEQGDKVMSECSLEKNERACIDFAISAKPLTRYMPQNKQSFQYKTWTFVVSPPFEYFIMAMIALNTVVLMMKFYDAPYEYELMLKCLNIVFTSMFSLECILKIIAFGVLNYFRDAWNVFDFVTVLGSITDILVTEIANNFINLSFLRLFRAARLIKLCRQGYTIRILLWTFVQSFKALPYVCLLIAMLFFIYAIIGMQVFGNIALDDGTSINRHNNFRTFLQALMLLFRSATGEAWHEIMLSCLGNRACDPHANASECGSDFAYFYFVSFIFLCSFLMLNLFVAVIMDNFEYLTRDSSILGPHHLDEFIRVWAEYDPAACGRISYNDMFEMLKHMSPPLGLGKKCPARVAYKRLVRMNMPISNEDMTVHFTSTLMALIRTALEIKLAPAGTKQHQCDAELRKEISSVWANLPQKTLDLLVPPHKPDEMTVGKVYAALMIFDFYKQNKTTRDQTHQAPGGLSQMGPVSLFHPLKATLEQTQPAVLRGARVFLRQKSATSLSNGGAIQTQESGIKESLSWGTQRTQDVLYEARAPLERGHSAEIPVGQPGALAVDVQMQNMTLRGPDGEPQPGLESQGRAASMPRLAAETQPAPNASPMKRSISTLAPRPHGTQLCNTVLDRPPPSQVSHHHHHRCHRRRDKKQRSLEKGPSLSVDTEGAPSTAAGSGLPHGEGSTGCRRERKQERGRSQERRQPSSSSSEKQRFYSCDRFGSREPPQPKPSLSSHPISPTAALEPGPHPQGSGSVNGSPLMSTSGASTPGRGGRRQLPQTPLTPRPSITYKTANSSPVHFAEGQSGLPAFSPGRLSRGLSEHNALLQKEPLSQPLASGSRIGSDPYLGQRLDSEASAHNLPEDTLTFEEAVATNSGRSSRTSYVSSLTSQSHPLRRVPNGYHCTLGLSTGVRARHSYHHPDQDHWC
row,SMILES,IC50 [nM]
1,CC(C)(C)c1cc(C(c2ccccc2)N2CCN(C(=O)CC(c3ccccc3)c3ccccc3)CC2)cc(C(C)(C)C)c1O (centres unmarked) [Compound P4],213
2,O=C(CC(c1ccccc1)c1ccccc1)N1CCN(C(c2ccccc2)c2cccc(Cl)c2)CC1 (centres unmarked) [Compound P36],114
3,Cl.O=C(O)C1CN(C(c2ccccc2)c2ccccc2)CCN1C(=O)CC(c1ccccc1)c1ccccc1 (centres unmarked) [Compound P8],230
4,O=C(CC(c1ccccc1)c1ccccc1)N1CCN(C(c2ccccc2)c2ccccc2Cl)CC1 (centres unmarked) [Compound P35],211
5,CCOC(=O)C1CN(C(c2ccccc2)c2ccccc2)CCN1C(=O)CC(c1ccccc1)c1ccccc1 (centres unmarked) [Compound P5],160
6,COc1ccc(C(c2ccc(C(F)(F)F)cc2)N2CCN(C(=O)CC(c3ccccc3)c3ccccc3)CC2)cc1 (centres unmarked) [Compound P3],291

# Same assay, conditions: 0.2 Hz; HEK 293, 5 mM barium as charge carrier; read-out: Block of α1B N-type Channels IC50, 0.2 Hz
row,SMILES,IC50 [nM]
1,CC(C)(C)c1cc(C(c2ccccc2)N2CCN(C(=O)CC(c3ccccc3)c3ccccc3)CC2)cc(C(C)(C)C)c1O (centres unmarked) [Compound P4],114
2,O=C(CC(c1ccccc1)c1ccccc1)N1CCN(C(c2ccccc2)c2cccc(Cl)c2)CC1 (centres unmarked) [Compound P36],44
3,Cl.O=C(O)C1CN(C(c2ccccc2)c2ccccc2)CCN1C(=O)CC(c1ccccc1)c1ccccc1 (centres unmarked) [Compound P8],140
4,O=C(CC(c1ccccc1)c1ccccc1)N1CCN(C(c2ccccc2)c2ccccc2Cl)CC1 (centres unmarked) [Compound P35],92
5,CCOC(=O)C1CN(C(c2ccccc2)c2ccccc2)CCN1C(=O)CC(c1ccccc1)c1ccccc1 (centres unmarked) [Compound P5],120
6,COc1ccc(C(c2ccc(C(F)(F)F)cc2)N2CCN(C(=O)CC(c3ccccc3)c3ccccc3)CC2)cc1 (centres unmarked) [Compound P3],111

# Target: T2, N-type calcium channels (α1B+α2δ+β1b cDNA subunits) (Rattus norvegicus, UniProt Q02294)
# T2 construct: expressed in transfected cells
# T2 sequence (Q02294 whole entry): as above
# Test: Selectivity patch clamp, N-type channels in HEK 293 (Example 7)
# Format: cell-based
# Details: Tested at 0.1 Hz, 5 mM Ba2+
row,SMILES,IC50 [nM]
1,CC(C)(C)c1cc(C(c2ccccc2)N2CCN(C(=O)CC(c3ccccc3)c3ccccc3)CC2)cc(C(C)(C)C)c1O (centres unmarked) [Compound P4],251
2,O=C(CC(c1ccccc1)c1ccccc1)N1CCN(C(c2ccccc2)c2cccc(Cl)c2)CC1 (centres unmarked) [Compound P36],206
3,Cl.O=C(O)C1CN(C(c2ccccc2)c2ccccc2)CCN1C(=O)CC(c1ccccc1)c1ccccc1 (centres unmarked) [Compound P8],360
4,O=C(CC(c1ccccc1)c1ccccc1)N1CCN(C(c2ccccc2)c2ccccc2Cl)CC1 (centres unmarked) [Compound P35],209
5,CCOC(=O)C1CN(C(c2ccccc2)c2ccccc2)CCN1C(=O)CC(c1ccccc1)c1ccccc1 (centres unmarked) [Compound P5],73
6,COc1ccc(C(c2ccc(C(F)(F)F)cc2)N2CCN(C(=O)CC(c3ccccc3)c3ccccc3)CC2)cc1 (centres unmarked) [Compound P3],185

# Tested on: P/Q-type channels (α1A+α2δ+β1b cDNA subunits)
# Test: Selectivity patch clamp, P/Q-type channels in HEK 293 (Example 7)
# Format: cell-based
# Details: Tested at 0.1 Hz, 5 mM Ba2+
row,SMILES,IC50 [nM]
1,CC(C)(C)c1cc(C(c2ccccc2)N2CCN(C(=O)CC(c3ccccc3)c3ccccc3)CC2)cc(C(C)(C)C)c1O (centres unmarked) [Compound P4],> 10000
2,O=C(CC(c1ccccc1)c1ccccc1)N1CCN(C(c2ccccc2)c2cccc(Cl)c2)CC1 (centres unmarked) [Compound P36],930
3,Cl.O=C(O)C1CN(C(c2ccccc2)c2ccccc2)CCN1C(=O)CC(c1ccccc1)c1ccccc1 (centres unmarked) [Compound P8],3400
4,O=C(CC(c1ccccc1)c1ccccc1)N1CCN(C(c2ccccc2)c2ccccc2Cl)CC1 (centres unmarked) [Compound P35],7030
5,CCOC(=O)C1CN(C(c2ccccc2)c2ccccc2)CCN1C(=O)CC(c1ccccc1)c1ccccc1 (centres unmarked) [Compound P5],5000
6,COc1ccc(C(c2ccc(C(F)(F)F)cc2)N2CCN(C(=O)CC(c3ccccc3)c3ccccc3)CC2)cc1 (centres unmarked) [Compound P3],7590

# Tested on: L-type channels (α1C+α2δ+β1b cDNA subunits)
# Test: Selectivity patch clamp, L-type channels in HEK 293 (Example 7)
# Format: cell-based
# Details: Tested at 0.1 Hz, 5 mM Ba2+
row,SMILES,IC50 [nM]
1,CC(C)(C)c1cc(C(c2ccccc2)N2CCN(C(=O)CC(c3ccccc3)c3ccccc3)CC2)cc(C(C)(C)C)c1O (centres unmarked) [Compound P4],> 10000
2,O=C(CC(c1ccccc1)c1ccccc1)N1CCN(C(c2ccccc2)c2cccc(Cl)c2)CC1 (centres unmarked) [Compound P36],8500
3,Cl.O=C(O)C1CN(C(c2ccccc2)c2ccccc2)CCN1C(=O)CC(c1ccccc1)c1ccccc1 (centres unmarked) [Compound P8],37100
4,O=C(CC(c1ccccc1)c1ccccc1)N1CCN(C(c2ccccc2)c2ccccc2Cl)CC1 (centres unmarked) [Compound P35],106000
5,CCOC(=O)C1CN(C(c2ccccc2)c2ccccc2)CCN1C(=O)CC(c1ccccc1)c1ccccc1 (centres unmarked) [Compound P5],210000
6,COc1ccc(C(c2ccc(C(F)(F)F)cc2)N2CCN(C(=O)CC(c3ccccc3)c3ccccc3)CC2)cc1 (centres unmarked) [Compound P3],> 10000

# Target: T3, human α1G subunits (T-type channels) (Homo sapiens, UniProt O43497)
# T3 construct: expressed in transfected cells
# T3 sequence (O43497 whole entry): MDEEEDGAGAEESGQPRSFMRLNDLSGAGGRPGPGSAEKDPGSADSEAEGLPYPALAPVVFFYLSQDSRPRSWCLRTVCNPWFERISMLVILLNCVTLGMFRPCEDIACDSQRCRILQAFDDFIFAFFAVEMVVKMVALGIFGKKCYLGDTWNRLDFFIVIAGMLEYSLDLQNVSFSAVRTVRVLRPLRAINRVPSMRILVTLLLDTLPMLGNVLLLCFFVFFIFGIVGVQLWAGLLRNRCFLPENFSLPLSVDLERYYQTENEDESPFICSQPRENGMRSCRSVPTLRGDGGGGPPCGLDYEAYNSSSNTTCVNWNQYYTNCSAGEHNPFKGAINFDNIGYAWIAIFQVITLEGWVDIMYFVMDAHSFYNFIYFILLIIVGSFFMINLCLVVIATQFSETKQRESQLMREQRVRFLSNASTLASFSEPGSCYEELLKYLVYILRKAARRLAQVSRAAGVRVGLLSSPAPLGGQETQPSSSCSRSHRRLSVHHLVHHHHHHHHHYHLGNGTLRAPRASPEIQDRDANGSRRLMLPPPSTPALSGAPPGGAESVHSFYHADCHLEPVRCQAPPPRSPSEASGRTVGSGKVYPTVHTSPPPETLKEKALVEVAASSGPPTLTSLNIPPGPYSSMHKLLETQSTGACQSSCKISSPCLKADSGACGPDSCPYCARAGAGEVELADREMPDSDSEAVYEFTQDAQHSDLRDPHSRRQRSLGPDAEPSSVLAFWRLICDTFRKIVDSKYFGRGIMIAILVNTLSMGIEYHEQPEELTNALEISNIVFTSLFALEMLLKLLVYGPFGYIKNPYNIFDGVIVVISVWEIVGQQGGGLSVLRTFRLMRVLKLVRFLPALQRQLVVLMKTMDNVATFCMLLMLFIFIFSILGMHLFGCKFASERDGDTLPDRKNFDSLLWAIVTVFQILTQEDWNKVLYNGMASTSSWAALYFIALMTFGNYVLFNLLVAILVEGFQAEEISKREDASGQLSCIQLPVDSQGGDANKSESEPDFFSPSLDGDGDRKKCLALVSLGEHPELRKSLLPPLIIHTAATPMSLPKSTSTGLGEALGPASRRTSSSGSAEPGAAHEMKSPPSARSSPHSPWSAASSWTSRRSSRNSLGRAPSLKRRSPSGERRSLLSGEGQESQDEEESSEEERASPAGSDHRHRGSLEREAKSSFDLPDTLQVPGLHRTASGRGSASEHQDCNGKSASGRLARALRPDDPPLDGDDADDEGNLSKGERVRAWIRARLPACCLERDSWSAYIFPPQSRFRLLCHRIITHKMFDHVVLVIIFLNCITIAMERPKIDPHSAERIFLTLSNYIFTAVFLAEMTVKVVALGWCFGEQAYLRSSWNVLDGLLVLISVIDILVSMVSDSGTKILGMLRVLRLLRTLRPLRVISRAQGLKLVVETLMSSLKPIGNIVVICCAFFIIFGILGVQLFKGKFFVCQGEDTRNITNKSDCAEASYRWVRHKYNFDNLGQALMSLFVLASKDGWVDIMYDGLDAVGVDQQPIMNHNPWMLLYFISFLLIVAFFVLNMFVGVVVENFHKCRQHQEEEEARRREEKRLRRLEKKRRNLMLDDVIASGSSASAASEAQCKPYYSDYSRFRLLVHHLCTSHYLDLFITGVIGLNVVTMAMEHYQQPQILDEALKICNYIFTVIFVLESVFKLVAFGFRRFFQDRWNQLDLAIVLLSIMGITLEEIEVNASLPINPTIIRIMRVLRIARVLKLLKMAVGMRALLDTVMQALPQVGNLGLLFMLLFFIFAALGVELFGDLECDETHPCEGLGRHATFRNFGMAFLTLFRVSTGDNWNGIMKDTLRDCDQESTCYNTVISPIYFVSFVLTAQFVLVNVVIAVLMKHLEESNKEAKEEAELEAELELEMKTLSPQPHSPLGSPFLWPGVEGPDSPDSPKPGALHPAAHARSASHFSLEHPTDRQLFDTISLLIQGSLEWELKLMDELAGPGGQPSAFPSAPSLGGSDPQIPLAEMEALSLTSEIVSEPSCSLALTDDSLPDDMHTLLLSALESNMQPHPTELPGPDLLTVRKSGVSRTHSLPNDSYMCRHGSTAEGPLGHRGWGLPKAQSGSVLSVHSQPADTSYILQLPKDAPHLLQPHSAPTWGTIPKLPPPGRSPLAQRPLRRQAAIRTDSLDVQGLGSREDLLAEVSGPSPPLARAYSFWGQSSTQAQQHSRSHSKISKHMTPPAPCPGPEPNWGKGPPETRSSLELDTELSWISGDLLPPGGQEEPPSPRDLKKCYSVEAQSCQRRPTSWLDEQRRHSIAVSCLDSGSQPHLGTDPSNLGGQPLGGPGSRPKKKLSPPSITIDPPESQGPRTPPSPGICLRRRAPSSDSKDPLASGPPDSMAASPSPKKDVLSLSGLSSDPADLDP
# Test: Block of α1G T-type channels, patch clamp in HEK cell lines (Example 8)
# Format: cell-based
# Details: 80 mV (inactivation protocol); read-out: Block of α1G T-type Channels IC50, 80 mV
# Protocol: Standard patch-clamp techniques were employed to identify blockers of T-type currents. Briefly, previously described HEK cell lines stably expressing human α1G subunits were used for all the recordings (passage #: 4-20, 37° C., 5% CO2). To obtain T-type currents, plastic dishes containing semi-confluent cells were positioned on the stage of a ZEISS AXIOVERT S100 microscope after replacing the culture medium with external solution (see below). Whole-cell patches were obtained using pipettes (borosilicate glass with filament, O.D.: 1.5 mm, I.D.: 0.86 mm, 10 cm length), fabricated on a SUTTER P-97 puller with resistance values of ˜5 MΩ (see below for internal medium).
# In the non-inactivating protocol, the holding potential is set at −110 mV and with a pre-pulse at −100 mV for 1 second prior to the test pulse at −40 mV for 50 ms; in the inactivation protocol, the pre-pulse is at approximately −85 mV for 1 second, which inactivates about 15% of the T-type channels, as shown below. [formula]
# Test compounds were dissolved in external solution, 0.1-0.01% DMSO. After ˜10 min rest, they were applied by gravity close to the cell using a WPI microfil tubing. The “non-inactivated” pre-pulse was used to examine the resting block of a compound. The “inactivated” protocol was employed to study voltage-dependent block, but the initial data shown below were mainly obtained using the non-inactivated protocol only. IC50 values are shown for various compounds of the invention in Table 5.
row,SMILES,IC50 [nM]
1,O=C(CC(c1ccccc1)c1ccccc1)N1CCN(C(c2ccccc2)c2cccc(Cl)c2)CC1 (centres unmarked) [Compound P36],55
2,O=C(CC(c1ccccc1)c1ccccc1)N1CCN(C(c2ccccc2)c2ccccc2Cl)CC1 (centres unmarked) [Compound P35],141

# Tested on: rat formalin model
# Test: Formalin-induced pain model
# Format: in vivo
# Details: 30 mg/kg IP, 10 minutes prior to formalin, saline control=100%
# Protocol: The effects of intrathecally delivered compounds of the invention on the rat formalin model were measured. The compounds were reconstituted to stock solutions of approximately 10 mg/ml in propylene glycol. Eight Holtsman male rats of 275-375 g size were randomly selected per test compound.
# The following study groups were used, with test compounds, vehicle control (propylene glycol) and saline delivered intraperitoneally (IP):
# Prior to initiation of drug delivery baseline behavioral and testing data were taken.
# On the morning of testing, a small metal band (0.5 g) was loosely placed around the right hind paw. The rat was placed in a cylindrical Plexiglas chamber for adaptation a minimum of 30 minutes. Test compound or vehicle control was administered 10 minutes prior to formalin injection (50 μl of 5% formalin) into the dorsal surface of the right hindpaw of the rat. The animal was then placed into the chamber of the automated formalin apparatus where movement of the formalin injected paw was monitored and the number of paw flinches tallied by minute over the next 60 minutes. (See Malmberg, A. M., and Yaksh, T. L., Anesthesiology (1993) 79:270-281.)
# Results are presented as Maximum Possible Effect±SEM, where saline control=100%.
SMILES,"Maximum Possible Effect ± SEM, Phase I [%]","Maximum Possible Effect ± SEM, Phase II [%]","Maximum Possible Effect ± SEM, Phase IIA [%]"
O=C(CC(c1ccccc1)c1ccccc1)N1CCN(C(c2ccccc2)c2cccc(Cl)c2)CC1 (centres unmarked) [Compound P36],62 ± 14,60 ± 10,42 ± 9
Cl.O=C(O)C1CN(C(c2ccccc2)c2ccccc2)CCN1C(=O)CC(c1ccccc1)c1ccccc1 (centres unmarked) [Compound P8],78 ± 5,70 ± 15,57 ± 18
O=C(CC(c1ccccc1)c1ccccc1)N1CCN(C(c2ccccc2)c2ccccc2Cl)CC1 (centres unmarked) [Compound P35],78 ± 8,67 ± 8,52 ± 11
COc1ccc(C(c2ccc(C(F)(F)F)cc2)N2CCN(C(=O)CC(c3ccccc3)c3ccccc3)CC2)cc1 (centres unmarked) [Compound P3],89 ± 8,79 ± 4,85 ± 5
